15 compounds from patent US20230041743A1, “1,8-NAPHTHYRIDIN-2-ONE COMPOUNDS FOR THE TREATMENT OF AUTOIMMUNE DISEASE” (Hoffmann-La Roche Inc., priority 2019, published 2023) can be followed below.

Series [1] addresses T1, human TLR7 (Homo sapiens, UniProt Q9NYK1).
T1 construct: host or cells: HEK293 (HEK-Blue hTLR7)
T1 sequence (Q9NYK1 27-1049): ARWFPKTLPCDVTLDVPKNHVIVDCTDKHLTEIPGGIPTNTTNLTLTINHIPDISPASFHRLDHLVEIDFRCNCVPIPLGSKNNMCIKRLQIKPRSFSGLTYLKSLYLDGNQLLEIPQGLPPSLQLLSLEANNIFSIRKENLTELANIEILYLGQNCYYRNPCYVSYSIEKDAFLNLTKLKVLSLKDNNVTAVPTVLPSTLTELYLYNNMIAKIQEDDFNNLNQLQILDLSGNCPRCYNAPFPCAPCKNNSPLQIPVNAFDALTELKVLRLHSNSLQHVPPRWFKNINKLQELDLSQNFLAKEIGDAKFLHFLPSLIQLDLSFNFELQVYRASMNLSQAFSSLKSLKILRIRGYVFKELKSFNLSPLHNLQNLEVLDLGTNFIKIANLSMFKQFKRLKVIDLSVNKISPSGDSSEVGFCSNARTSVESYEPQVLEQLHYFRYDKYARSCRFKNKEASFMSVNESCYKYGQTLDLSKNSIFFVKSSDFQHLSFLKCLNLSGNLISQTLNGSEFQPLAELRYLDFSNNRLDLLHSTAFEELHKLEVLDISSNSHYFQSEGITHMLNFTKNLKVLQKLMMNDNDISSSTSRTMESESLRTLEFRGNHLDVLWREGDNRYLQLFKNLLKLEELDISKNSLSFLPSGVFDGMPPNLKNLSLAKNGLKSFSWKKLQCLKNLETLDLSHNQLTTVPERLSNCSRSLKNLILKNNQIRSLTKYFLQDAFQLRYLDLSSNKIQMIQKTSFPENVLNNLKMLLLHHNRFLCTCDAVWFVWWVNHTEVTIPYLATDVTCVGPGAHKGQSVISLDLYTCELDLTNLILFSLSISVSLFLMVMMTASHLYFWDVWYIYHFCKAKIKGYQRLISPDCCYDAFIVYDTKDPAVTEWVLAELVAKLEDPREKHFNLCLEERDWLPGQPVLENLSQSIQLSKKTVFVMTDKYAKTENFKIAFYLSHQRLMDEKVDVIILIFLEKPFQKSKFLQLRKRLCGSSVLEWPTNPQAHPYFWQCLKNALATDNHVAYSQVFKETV
The series can be described thus: HEK293-Blue-hTLR-7 cells assay (SEAP reporter, R848 stimulation). The series is classed as cell-based. The note with it: HEK293-Blue-hTLR7 cells, R848 ligand, 20 hrs incubation; read-out: HEK/hTLR7 IC50. The text has this:
HEK293-Blue-hTLR-7 Cells Assay:
A stable HEK293-Blue-hTLR-7 cell line was purchased from InvivoGen (Cat. #: hkb-htlr7, San Diego, Calif., USA). These cells were originally designed for studying the stimulation of human TLR7 by monitoring the activation of NF-κB. A SEAP (secreted embryonic alkaline phosphatase) reporter gene was placed under the control of the IFN-β minimal promoter fused to five NF-κB and AP-1-binding sites. The SEAP was induced by activating NF-κB and AP-1 via stimulating HEK-Blue hTLR7 cells with TLR7 ligands. Therefore the reporter expression was declined by TLR7 antagonist under the stimulation of a ligand, such as R848 (Resiquimod), for incubation of 20 hrs. The cell culture supernatant SEAP reporter activity was determined using QUANTI-Blue™ kit (Cat. #: rep-qb1, Invivogen, San Diego, Ca, USA) at a wavelength of 640 nm, a detection medium that turns purple or blue in the presence of alkaline phosphatase.
HEK293-Blue-hTLR7 cells were incubated at a density of 250,000-450,000 cells/mL in a volume of 170 μL in a 96-well plate in Dulbecco's Modified Eagle's medium (DMEM) containing 4.5 g/L glucose, 50 U/mL penicillin, […], […], 2 mM L-glutamine, 10% (v/v) heat-inactivated fetal bovine serum with addition of 20 μL test compound in a serial dilution in the presence of final DMSO at 1% and 10 μL of 20 uM R848 in above DMEM, perform incubation under 37° C. in a CO2 incubator for 20 hrs. Then 20 μL of the supernatant from each well was incubated with 180 μL Quanti-blue substrate solution at 37° C. for 2 hrs and the absorbance was read at 620˜655 nm using a spectrophotometer. The signaling pathway that TLR7 activation leads to downstream NF-κB activation has been widely accepted, and therefore similar reporter assay was modified for evaluating TLR7 antagonist.

Series [2] is described as follows: Human microsomal stability assay. It is filed as in vitro ADME. Particulars: human liver microsomes, 1 μM test compound, 0.5 mg/mL protein, 37° C.; low <7.0, medium 7.0-16.2, high 16.2-23.2. As for the experimental part:
Human Microsomal Stability Assay
Human liver microsomes (Cat. NO.: 452117, Corning, USA) were preincubated with test compound for 10 minutes at 37° C. in 100 mM potassium phosphate buffer, pH 7.4. The reactions were initiated by adding NADPH regenerating system. The final incubation mixtures contained 1 μM test compound, 0.5 mg/mL liver microsomal protein, 1 mM MgCl2, 1 mM NADP, 1 unit/mL isocitric dehydrogenase and 6 mM isocitric acid in 100 mM potassium phosphate buffer, pH 7.4. After incubation times of 0, 3, 6, 9, 15 and 30 minutes at 37° C., 300 μL of cold ACN (including internal standard) was added to 100 μL incubation mixture to terminate the reaction. Following precipitation and centrifugation, 100 uL supernatant will be taken out and added 300 uL water.
The amount of compound remaining in the samples was determined by LC-MS/MS. Controls of no NADPH regenerating system at zero and 30 minutes were also prepared and analyzed. The results were categorized as: low (<7.0 mL/min/kg), medium (7.0-16.2 mL/min/kg) and high (16.2-23.2 mL/min/kg).

In the case of `C[C@@H]1CN(c2cc(=O)n(C)c3ncccc23)C[C@@H]2c3ccc(N4CC(C)(N)C4)cc3CN12` [Example 1, 4-[(4R,10bS)-8-(3-amino-3-methyl-azetidin-1-yl)-4-methyl-3,4,6,10b-tetrahydro-1H-pyrazino[2,1-a]isoindol-2-yl]-1-methyl-1,8-naphthyridin-2-one], the IC50 in series [1] stood at 30.4 nM.

`C[C@@H]1CN(c2cc(=O)n(C)c3ncccc23)C[C@@H]2c3ccc(N4CC5(CN(C)C5)C4)cc3CN12` [Example 2, 4-[(4R,10bS)-4-methyl-8-(6-methyl-2,6-diazaspiro[3.3]heptan-2-yl)-3,4,6,10b-tetrahydro-1H-pyrazino[2,1-a]isoindol-2-yl]-1-methyl-1,8-naphthyridin-2-one]: the IC50 in series [1] came to 11.5 nM. Also, in series [2], the “CL (h)” value is given as 9.5 mL/min/kg.

With `C[C@@H]1CN(c2cc(=O)n(C)c3ncccc23)C[C@@H]2c3ccc(N4CC5(CNCCO5)C4)cc3CN12` [Example 3, 4-[(4R,10bS)-4-methyl-8-(5-oxa-2,8-diazaspiro[3.5]nonan-2-yl)-3,4,6,10b-tetrahydro-1H-pyrazino[2,1-a]isoindol-2-yl]-1-methyl-1,8-naphthyridin-2-one], the IC50 in series [1] came out at 21.1 nM.

Take `C[C@@H]1CN(c2cc(=O)n(C)c3ncccc23)C[C@@H]2c3ccc(N4CC[C@@](C)(N)C4)cc3CN12` [Example 4, 4-[(4R,10bS)-8-[(3R)-3-amino-3-methyl-pyrrolidin-1-yl]-4-methyl-3,4,6,10b-tetrahydro-1H-pyrazino[2,1-a]isoindol-2-yl]-1-methyl-1,8-naphthyridin-2-one]: in series [1], the IC50 is 39.5 nM. Also, the “CL (h)” value in series [2] is reported as 6.3 mL/min/kg.

Consider `CO[C@@H]1CN(c2ccc3c(c2)CN2[C@H](C)CN(c4cc(=O)n(C)c5ncccc45)C[C@H]32)C[C@H]1N` [Example 5, 4-[(4R,10bS)-8-[(3R,4R)-3-amino-4-methoxy-pyrrolidin-1-yl]-4-methyl-3,4,6,10b-tetrahydro-1H-pyrazino[2,1-a]isoindol-2-yl]-1-methyl-1,8-naphthyridin-2-one], for which the IC50 in series [1] turned out to be 38.1 nM. The “CL (h)” value in series [2] came out at 7.8 mL/min/kg.

As for `C[C@@H]1CN(c2cc(=O)n(C)c3ncccc23)C[C@@H]2c3ccc(N4C[C@H]5NCCO[C@@H]5C4)cc3CN12` [Example 6, 4-[(4R,10bS)-8-[(4aR,7aR)-3,4,4a,5,7,7a-hexahydro-2H-pyrrolo[3,4-b][1,4]oxazin-6-yl]-4-methyl-3,4,6,10b-tetrahydro-1H-pyrazino[2,1-a]isoindol-2-yl]-1-methyl-1,8-naphthyridin-2-one], in series [1], the IC50 came to 62 nM.

With `C[C@@H]1CN(c2cc(=O)n(C)c3ncccc23)C[C@@H]2c3ccc(N4C[C@@H](N)[C@@H](F)C4)cc3CN12` [Example 7, 4-[(4R,10bS)-8-[(3R,4S)-3-amino-4-fluoro-pyrrolidin-1-yl]-4-methyl-3,4,6,10b-tetrahydro-1H-pyrazino[2,1-a]isoindol-2-yl]-1-methyl-1,8-naphthyridin-2-one], the IC50 in series [1] came to 43.7 nM. The “CL (h)” value in series [2] is 9.4 mL/min/kg.

For the compound `CO[C@H]1CN(c2ccc3c(c2)CN2[C@H](C)CN(c4cc(=O)n(C)c5ncccc45)C[C@H]32)CC[C@@H]1N` [Example 8, 4-[(4R,10bS)-8-[(3S,4S)-4-amino-3-methoxy-1-piperidyl]-4-methyl-3,4,6,10b-tetrahydro-1H-pyrazino[2,1-a]isoindol-2-yl]-1-methyl-1,8-naphthyridin-2-one], the IC50 in series [1] was found to be 19.4 nM.

In the case of `CO[C@H]1CCN(c2ccc3c(c2)CN2[C@H](C)CN(c4cc(=O)n(C)c5ncccc45)C[C@H]32)C[C@@H]1N` [Example 9, 4-[(4R,10bS)-8-[(3S,4S)-3-amino-4-methoxy-1-piperidyl]-4-methyl-3,4,6,10b-tetrahydro-1H-pyrazino[2,1-a]isoindol-2-yl]-1-methyl-1,8-naphthyridin-2-one], the IC50 in series [1] came to 62.6 nM. For the same compound, the “CL (h)” value in series [2] amounted to 8.8 mL/min/kg.

For the compound `COC[C@@H]1CNCCN1c1ccc2c(c1)CN1[C@H](C)CN(c3cc(=O)n(C)c4ncccc34)C[C@H]21` [Example 10, 4-[(4R,10bS)-8-[(2S)-2-(methoxymethyl)piperazin-1-yl]-4-methyl-3,4,6,10b-tetrahydro-1H-pyrazino[2,1-a]isoindol-2-yl]-1-methyl-1,8-naphthyridin-2-one], the IC50 in series [1] was 9.1 nM.

On to `C[C@@H]1CN(c2ccc3c(c2)CN2[C@H](C)CN(c4cc(=O)n(C)c5ncccc45)C[C@H]32)CCN1` [Example 14, 4-[(4R,10bS)-4-methyl-8-[(3R)-3-methylpiperazin-1-yl]-3,4,6,10b-tetrahydro-1H-pyrazino[2,1-a]isoindol-2-yl]-1-methyl-1,8-naphthyridin-2-one], for which, in series [1], the IC50 was 6.4 nM.

Turning to `C[C@@H]1CNCCN1c1ccc2c(c1)CN1[C@H](C)CN(c3cc(=O)n(C)c4ncccc34)C[C@H]21` [Example 17, 4-[(4R,10bS)-4-methyl-8-[(2R)-2-methylpiperazin-1-yl]-3,4,6,10b-tetrahydro-1H-pyrazino[2,1-a]isoindol-2-yl]-1-methyl-1,8-naphthyridin-2-one], the IC50 in series [1] was 2.8 nM.

Take `C[C@@H]1CN(c2cc(=O)n(C)c3ncccc23)C[C@@H]2c3ccc(N4CCOC[C@H](N)C4)cc3CN12` [Example 22, 4-[(4R,10bS)-8-[(6R)-6-amino-1,4-oxazepan-4-yl]-4-methyl-3,4,6,10b-tetrahydro-1H-pyrazino[2,1-a]isoindol-2-yl]-1-methyl-1,8-naphthyridin-2-one]: the IC50 in series [1] amounted to 35.8 nM.

On to `C[C@@H]1CN(c2cc(=O)n(C)c3ncccc23)C[C@@H]2c3ccc([C@H]4CC[C@@H](N5CCOCC5)CC4)cc3CN12` [Example 27B, 4-[(4R,10bS)-4-methyl-8-(cis-4-morpholinocyclohexyl)-3,4,6,10b-tetrahydro-1H-pyrazino[2,1-a]isoindol-2-yl]-1-methyl-1,8-naphthyridin-2-one], for which, in series [1], the IC50 amounted to 10 nM.

As for `C[C@@H]1CN(c2cc(=O)n(C)c3ncccc23)C[C@@H]2c3ccc([C@@H]4C[C@H]5COC[C@@H](C4)N5)cc3CN12` [Example 28B, 4-[(4R,10bS)-4-methyl-8-(exo-3-oxa-9-azabicyclo[3.3.1]nonan-7-yl)-3,4,6,10b-tetrahydro-1H-pyrazino[2,1-a]isoindol-2-yl]-1-methyl-1,8-naphthyridin-2-one], the IC50 in series [1] was 8.6 nM.
